pEC50: −log10 of the molar value. Like-named read-outs stand apart in the source and are kept apart here. *1 amine or outer side, *2 acyl side, *3 side chain or, on linkers, in order; H or OH if unused. Where a SMILES comes first, the peptide text is derived from it. Primed or numbered codes have the meaning given here. Where no end group is shown, it is not given here. Side-chain parts run from the residue outwards. [ ]: non-standard residue; d: D form. The star is where a group is joined. ξ: configuration not given here. Palmitoyl(16-(5-tetrazolyl)) = O=C(CCCCCCCCCCCCCCCc1nnn[nH]1)*; γGlu = O=C(O)[C@H](CCC(=O)[*:2])N[*:1]; Palmitoyl = CCCCCCCCCCCCCCCC(=O)*; αMeF = C[C@](N)(Cc1ccccc1)C(=O)O; ξαMeF = CC(N)(Cc1ccccc1)C(=O)O; αMeK = C[C@](N)(CCCCN)C(=O)O; ξαMeK = CC(N)(CCCCN)C(=O)O; PEG2′ = not defined here; Aib = CC(C)(N)C(=O)O
Key:
[1] = test system: DPP-IV, Neprilysin, Chymotrypsin, Trypsin, Pepsin; assay: enzyme resistance, protease panel (Table 2 description); assay type: in vitro ADME
Method: Peptides for evaluation were prepared to a concentration of 1.0 mg/mL solutions in either pure water, sterile saline for injection (0.9% w/v NaCl/water) or 1× PBS (Dulbecco). 100 μL (100 μg/mL peptide) of these solutions was added to 900 μL of each protease solution. Additional experiments were performed examining protein degradation during exposure to serum and gastric fluid. For serum studies, peptides were incubated with 50% female Sprague-Dawley strain rat serum (SD rat serum). For gastric fluid studies, peptides were incubated 1:1 (volume:volume), fresh rat gastric fluid.
The peptide and enzyme (or serum or gastric fluid) were co-incubated in a temperature regulated water bath at 37° C. for the duration of the experiment. During each experiment 100 μL aliquots (10 μg peptide) of the incubated peptide-enzyme mixture were withdrawn periodically, quenched by addition of an equal volume of 5% TFA (v/v) in 1:1 water/acetonitrile to arrest proteolytic activity, and analyzed by liquid chromatography-mass spectrometry (LC/MS): Agilent Polaris C8-A column (4.6×100 mm, 3 micron) using a linear binary gradient of 10-90% MeCN (0.1% TFA v/v) in water (0.1% TFA v/v) over 30 minutes at 1.5 mL min^−1 at ambient temperature. Analytes were detected by both UV absorption at 210 nm and ionization using a Waters 3100 mass detector (ESI^+ mode). New peptidic species (fragments) derived from enzymatic cleavage of peptides were analyzed post-process, and their molecular masses were used to identify the precise cleavage position (highlighting the scissile bond in each case).

hGluc-R = molecular target: T1, hGluc-R (Homo sapiens, UniProt P47871); assay: cAMP functional assay, cells expressing human glucagon receptor (primary assay); assay type: cell-based; conditions: n = 2
T1 construct: expressed in transfected cells
T1 sequence (P47871 26-477): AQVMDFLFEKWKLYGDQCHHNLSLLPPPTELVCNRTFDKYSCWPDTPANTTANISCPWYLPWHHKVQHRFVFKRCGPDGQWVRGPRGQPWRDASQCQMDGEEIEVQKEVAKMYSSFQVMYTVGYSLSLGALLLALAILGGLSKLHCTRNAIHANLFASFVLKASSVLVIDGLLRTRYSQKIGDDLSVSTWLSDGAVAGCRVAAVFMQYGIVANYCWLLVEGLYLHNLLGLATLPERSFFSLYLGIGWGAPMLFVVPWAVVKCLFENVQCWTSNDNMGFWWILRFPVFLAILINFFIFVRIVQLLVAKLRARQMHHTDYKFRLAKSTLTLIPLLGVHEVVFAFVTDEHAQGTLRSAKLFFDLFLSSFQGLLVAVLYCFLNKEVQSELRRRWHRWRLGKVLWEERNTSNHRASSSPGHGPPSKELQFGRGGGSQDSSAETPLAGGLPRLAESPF

hGLP-1R = molecular target: T2, hGLP-1R (Homo sapiens, UniProt P43220); assay: cAMP functional assay, cells expressing human GLP-1 receptor (primary assay); assay type: cell-based; conditions: n = 2
T2 construct: expressed in transfected cells
T2 sequence (P43220 24-463): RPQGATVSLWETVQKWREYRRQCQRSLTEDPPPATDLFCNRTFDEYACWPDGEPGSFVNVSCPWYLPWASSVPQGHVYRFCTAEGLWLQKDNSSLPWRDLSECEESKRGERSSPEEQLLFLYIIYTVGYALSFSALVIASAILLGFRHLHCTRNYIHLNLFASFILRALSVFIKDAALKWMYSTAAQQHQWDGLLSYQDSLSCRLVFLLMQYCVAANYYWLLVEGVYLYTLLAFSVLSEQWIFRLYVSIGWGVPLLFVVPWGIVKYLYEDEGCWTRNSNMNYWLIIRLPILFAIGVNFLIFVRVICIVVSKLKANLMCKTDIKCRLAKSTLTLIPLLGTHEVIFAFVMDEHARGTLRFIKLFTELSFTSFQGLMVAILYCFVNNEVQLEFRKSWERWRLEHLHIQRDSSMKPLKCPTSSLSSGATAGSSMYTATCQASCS

hGIP-R = molecular target: T3, hGIP-R (Homo sapiens, UniProt P48546); assay: cAMP functional assay, cells expressing human GIP receptor (primary assay); assay type: cell-based; conditions: n = 2
T3 construct: expressed in transfected cells
T3 sequence (P48546 22-466): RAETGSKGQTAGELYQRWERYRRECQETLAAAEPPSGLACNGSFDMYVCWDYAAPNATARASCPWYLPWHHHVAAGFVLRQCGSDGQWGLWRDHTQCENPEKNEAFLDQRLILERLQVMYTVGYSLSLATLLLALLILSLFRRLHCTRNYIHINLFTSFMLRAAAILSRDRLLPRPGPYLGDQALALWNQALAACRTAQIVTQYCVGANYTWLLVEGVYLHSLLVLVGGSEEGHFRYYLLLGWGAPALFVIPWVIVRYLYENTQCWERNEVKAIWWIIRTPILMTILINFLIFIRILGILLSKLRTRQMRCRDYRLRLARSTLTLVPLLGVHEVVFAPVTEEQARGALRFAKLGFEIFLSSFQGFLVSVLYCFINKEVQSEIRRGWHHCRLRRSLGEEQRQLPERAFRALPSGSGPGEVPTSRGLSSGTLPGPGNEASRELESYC

enzyme resistance (DPP-IV, Neprilysin, Chymotrypsin, Trypsin, Pepsin) [1] | pEC50 (hGluc-R) | pEC50 (hGLP-1R) | pEC50 (hGIP-R) | pEC50 (hGLP-1R; read-out: Primary assay EC50 (n = 2) hGLP-1R) | Compound
Excellent enzyme resistance | – | – | – | – | CCCCCCCCCCCCCCCC(=O)N[C@@H](CCC(=O)NCCCC[C@H](NC(=O)CNC(=O)CNC(=O)C(C)(CCCCN)NC(=O)[C@@H](NC(=O)[C@@H](NC(=O)C(C)(Cc1ccccc1)NC(=O)[C@H](C)NC(=O)[C@@H](NC(=O)C(C)(Cc1ccccc1)NC(=O)[C@H](CCC(=O)O)NC(=O)C(C)(CCCCN)NC(=O)[C@H](C)NC(=O)[C@H](C)NC(=O)[C@H](CCC(N)=O)NC(=O)CNC(=O)[C@H](CCC(=O)O)NC(=O)[C@H](CC(C)C)NC(=O)C(C)(Cc1ccccc1)NC(=O)[C@H](CO)NC(=O)[C@H](CO)NC(=O)[C@@H](NC(=O)[C@H](CC(=O)O)NC(=O)[C@H](CO)NC(=O)[C@@H](NC(=O)C(C)(Cc1ccccc1)NC(=O)[C@H](CO)NC(=O)CNC(=O)[C@H](CCC(=O)O)NC(=O)C(C)(C)NC(=O)[C@@H](N)Cc1c[nH]cn1)[C@@H](C)O)C(C)C)[C@@H](C)CC)C(C)C)C(C)C)C(N)=O)C(=O)O (stereo partly drawn) [SEQ ID NO: 54, H-(Aib)^2-EG-(S)^5-(α-MeF)^6-TSDV^10 SS-(α-MeF)^13-LE^15 GQAA-(α-MeK)^20 E-(α-MeF)^22-IA-(α-MeF)^25-(V)^26-V-(α-MeK)^28-G-(G)^30-K(Ε-γ-E-Palm)] (H-H[Aib]EGS[ξαMeF]TSDVSS[ξαMeF]LEGQAA[ξαMeK]E[ξαMeF]IA[ξαMeF]VV[ξαMeK]GGK([γGlu-Palmitoyl])-NH2)
Excellent enzyme resistance | 7.05 | 9.66 | 7.05 | – | CCCCCCCCCCCCCCCC(=O)N[C@@H](CCC(=O)NCCCC[C@H](NC(=O)CNC(=O)CNC(=O)[C@](C)(CCCCN)NC(=O)[C@@H](NC(=O)[C@@H](NC(=O)[C@](C)(Cc1ccccc1)NC(=O)[C@H](C)NC(=O)[C@@H](NC(=O)[C@](C)(Cc1ccccc1)NC(=O)[C@H](CCC(=O)O)NC(=O)[C@](C)(CCCCN)NC(=O)[C@H](C)NC(=O)[C@H](C)NC(=O)[C@H](CCC(=O)O)NC(=O)CNC(=O)[C@H](CCC(=O)O)NC(=O)[C@H](CC(C)C)NC(=O)[C@](C)(Cc1ccccc1)NC(=O)[C@H](CO)NC(=O)[C@H](CO)NC(=O)[C@@H](NC(=O)[C@H](CC(=O)O)NC(=O)[C@H](CO)NC(=O)[C@@H](NC(=O)[C@](C)(Cc1ccccc1)NC(=O)[C@H](CO)NC(=O)CNC(=O)[C@H](CCC(=O)O)NC(=O)C(C)(C)NC(=O)[C@@H](N)Cc1c[nH]cn1)[C@@H](C)O)C(C)C)[C@@H](C)CC)C(C)C)C(C)C)C(N)=O)C(=O)O [SEQ ID NO: 59, H-(Aib)^2-EG-(S)^5-(α-MeF)^6-TSDV^10 SS-(α-MeF)^13-LE^15 G-(E)^17-AA-(α-MeK)^20 E-(α-MeF)^22-IA-(α-MeF)^25-(V)^26-V-(α-MeK)^28-G-(G)^30-K(Ε-γ-E-Palm)] (H-H[Aib]EGS[αMeF]TSDVSS[αMeF]LEGEAA[αMeK]E[αMeF]IA[αMeF]VV[αMeK]GGK([γGlu-Palmitoyl])-NH2)
Excellent enzyme resistance | 7.18 | 10.67 | 6.98 | – | CC[C@H](C)[C@H](NC(=O)[C@](C)(Cc1ccccc1)NC(=O)[C@H](CCC(=O)O)NC(=O)[C@](C)(CCCCN)NC(=O)[C@H](C)NC(=O)[C@H](C)NC(=O)[C@H](CCC(=O)O)NC(=O)CNC(=O)[C@H](CCC(=O)O)NC(=O)[C@H](CC(C)C)NC(=O)[C@](C)(Cc1ccccc1)NC(=O)[C@H](CO)NC(=O)[C@H](CO)NC(=O)[C@@H](NC(=O)[C@H](CC(=O)O)NC(=O)[C@H](CO)NC(=O)[C@@H](NC(=O)[C@](C)(Cc1ccccc1)NC(=O)[C@H](CO)NC(=O)CNC(=O)[C@H](CCC(=O)O)NC(=O)C(C)(C)NC(=O)[C@@H](N)Cc1c[nH]cn1)[C@@H](C)O)C(C)C)C(=O)N[C@@H](C)C(=O)N[C@@](C)(Cc1ccccc1)C(=O)N[C@H](C(=O)N[C@H](C(=O)N[C@@](C)(CCCCN)C(=O)NCC(=O)NCC(N)=O)C(C)C)C(C)C [SEQ ID NO: 60, H-(Aib)^2-EG-(S)^5-(α-MeF)^6-TSDV^10 SS-(α-MeF)^13-LE^15 G-(E)^17-AA-(α-MeK)^20 E-(α-MeF)^22-IA-(α-MeF)^25-(V)^26-V-(α-MeK)^28-G-(G)^30]
Excellent enzyme resistance | 7.52 | 10.47 | 7.00 | – | CC[C@H](C)[C@H](NC(=O)[C@](C)(Cc1ccccc1)NC(=O)[C@H](CCC(=O)O)NC(=O)[C@](C)(CCCCN)NC(=O)[C@H](C)NC(=O)[C@H](C)NC(=O)[C@H](CCC(=O)O)NC(=O)CNC(=O)[C@H](CCC(=O)O)NC(=O)[C@H](CC(C)C)NC(=O)[C@](C)(Cc1ccccc1)NC(=O)[C@H](CO)NC(=O)[C@H](CO)NC(=O)[C@@H](NC(=O)[C@H](CC(=O)O)NC(=O)[C@H](CO)NC(=O)[C@@H](NC(=O)[C@](C)(Cc1ccccc1)NC(=O)[C@H](CO)NC(=O)CNC(=O)[C@H](CCC(=O)O)NC(=O)C(C)(C)NC(=O)[C@@H](N)Cc1c[nH]cn1)[C@@H](C)O)C(C)C)C(=O)N[C@@H](C)C(=O)N[C@@](C)(Cc1ccccc1)C(=O)N[C@H](C(=O)N[C@H](C(=O)N[C@@](C)(CCCCN)C(=O)NCC(=O)NCC(=O)N[C@@H](CCCCN)C(N)=O)C(C)C)C(C)C [SEQ ID NO: 61, H-(Aib)^2-EG-(S)^5-(α-MeF)^6-TSDV^10 SS-(α-MeF)^13-LE^15 G-(E)^17-AA-(α-MeK)^20 E-(α-MeF)^22-IA-(α-MeF)^25-(V)^26-V-(α-MeK)^28-G-(G)^30-(K)^31] (H-H[Aib]EGS[αMeF]TSDVSS[αMeF]LEGEAA[αMeK]E[αMeF]IA[αMeF]VV[αMeK]GGK-NH2)

Compound | enzyme resistance (DPP-IV, Neprilysin, Chymotrypsin, Trypsin, Pepsin) [1] | pEC50 (hGluc-R) | pEC50 (hGLP-1R) | pEC50 (hGIP-R) | pEC50 (hGLP-1R; read-out: Primary assay EC50 (n = 2) hGLP-1R)
H-(Aib)^2-EG-(S)^5-(α-MeF)^6-TSDV^10 SS-(α-MeF)^13-LE^15 GQAA-(α-MeK)^20 E-(α-MeF)22^-IA-(α-MeF)^25-(V)^26-V-(α-MeK)^28-G-(G)^30-K(Ε-γ-E-Tetrazolylpalm) (H[Aib]EGS[αMeF]TSDVSS[αMeF]LEGQAA[αMeK]E[αMeF]IA[αMeF]VV[αMeK]GGK([γGlu-Palmitoyl(16-(5-tetrazolyl))])) [SEQ ID NO: 55] | Excellent enzyme resistance | – | – | – | –
H-(Aib)^2-EG-(S)^5-(α-MeF)^6-TSDV^10 SS-(α-MeF)^13-LE^15 GQAA-(α-MeK)^20 E-(α-MeF)^22-IA-(α-MeF)^25-(V)^26-V-(α-MeK)^28-G-(G)^30-K(Ε-Tetrazolylpalm) (H[Aib]EGS[αMeF]TSDVSS[αMeF]LEGQAA[αMeK]E[αMeF]IA[αMeF]VV[αMeK]GGK(Palmitoyl(16-(5-tetrazolyl))); not fully specified (C-terminus); printed as H-(Aib)^2-EG-(S)^5-(α-MeF)^6-TSDV^10 SS-(α-MeF)^13-LE^15 GQAA-(α-MeK)^20 E-(α-MeF)^22-IA-(α-MeF)^25-(V)^26-V-(α-MeK)^28-G-(G)^30-K(Ε-Tetrazolylpalm)) [SEQ ID NO: 53] | Excellent enzyme resistance | – | – | – | 10.35
H-(Aib)^2-EG-(S)^5-(α-MeF)^6-TSDV^10 SS-(α-MeF)^13-LE^15 GQAA-(α-MeK)^20 E-(α-MeF)^22-IA-(α-MeF)^25-(V)^26-V-(α-MeK)^28-G-(G)^30-K(Ε-γ-E-(PEG)^2-Tetrazolylpalm) (H[Aib]EGS[αMeF]TSDVSS[αMeF]LEGQAA[αMeK]E[αMeF]IA[αMeF]VV[αMeK]GGK([γGlu-PEG2′-Palmitoyl(16-(5-tetrazolyl))]); not fully specified; printed as H-(Aib)^2-EG-(S)^5-(α-MeF)^6-TSDV^10 SS-(α-MeF)^13-LE^15 GQAA-(α-MeK)^20 E-(α-MeF)^22-IA-(α-MeF)^25-(V)^26-V-(α-MeK)^28-G-(G)^30-K(Ε-γ-E-(PEG)^2-Tetrazolylpalm)) [SEQ ID NO: 56] | Excellent enzyme resistance | – | – | – | –

Source: US20160318987A1 (MEDIMMUNE LIMITED, priority 2013, published 2016)
